In patent US4112228A, “7-(D-α-Hydroxy-2-arylacetamido)-3-(2-carboxyalkyl-2,3-dihydro-s-tri azolo-[4,3-b]pyridazin-3-on-6-ylthiomethyl)-3-cephem-4-carboxylic acids and derivatives” (priority 1977, dated 1978):
Like-named read-outs stand apart in the source and are kept apart here.

Legend:
P. stuartii = test: MIC by Steers' agar dilution method; conditions: Providencia stuartii
S. pyogenes = test: MIC by Steers' agar dilution method
Urinary recovery in rats = format: in vivo; conditions: rat, urine, sc 10 mg./kg., 0-24 Hrs.
Shig. sonnei = test: MIC by Steers' agar dilution method; format: cell-based; conditions: Shigella sonnei, MHA
Ps. aeruginosa = test: MIC by Steers' agar dilution method; conditions: Pseudomonas aeruginosa
Sal. typhosa = test: MIC by Steers' agar dilution method; format: cell-based; conditions: St-1; MHA; Table 3
S. aureus = test: MIC by Steers' agar dilution method; format: cell-based; conditions: Staphylococcus aureus

Cn1nnnc1SCC1=C(C(=O)O)N2C(=O)[C@@H](NC(=O)[C@H](O)c3ccccc3)[C@H]2SC1 [Cefamandole, cefamandole, reference compound]
1.6 µg/mL: MIC (P. stuartii; Ps-1 A20745, MHA, Table 4) | MIC (S. aureus; Sa-58 A15033, MHA, Table 2)
0.05 µg/mL: MIC (Shig. sonnei; A9516, Table 1) | MIC (S. aureus; A9497, MHA, Table 1)
0.0125 µg/mL: MIC (S. aureus; Sa-33 Terajima, MHA, Table 2)
0.2 µg/mL: MIC (P. stuartii; Ps-2 A20894, MHA, Table 4) | MIC (Shig. sonnei; Example 10) | MIC (Sal. typhosa) | MIC (S. aureus; Sa-2 Smith A9537, HIA, Table 4) | MIC (S. aureus; Sa-2 Smith A9537, MHA, Table 2) | MIC (S. aureus; Sa-2 Smith A9537, MHA, Table 4) | MIC (S. aureus; Sa-2 Smith A9537, NA, Table 4) | MIC (S. aureus; Sa-3 No. 193, MHA, Table 2) | MIC (S. aureus; Sa-8, MHA, Table 2) | MIC (S. aureus; Sa-9 No. 193, MHA, Table 2) | MIC (S. aureus; Sa-11 BX-1633 A9606, MHA, Table 2) | MIC (S. aureus; Sa-34 A15092, MHA, Table 2) | MIC (S. aureus; Sa-38 A9534, MHA, Table 2) | MIC (S. aureus; Sa-41 A9602, MHA, Table 2)
0.4 µg/mL: MIC (P. stuartii; Ps-2 A20894, HIA, Table 4) | MIC (P. stuartii; Ps-2 A20894, NA, Table 4) | MIC (S. aureus; BX-1633, MHA, Example 10) | MIC (S. aureus; Sa-10 A20239, MHA, Table 2) | MIC (S. aureus; Sa-11 BX-1633 A9606 (β-lactamase), HIA, Table 4) | MIC (S. aureus; Sa-11 BX-1633 A9606 (β-lactamase), MHA, Table 4) | MIC (S. aureus; Sa-11 BX-1633 A9606 (β-lactamase), NA, Table 4) | MIC (S. aureus; Sa-35 A15094, MHA, Table 2) | MIC (S. aureus; Sa-36 Russell, MHA, Table 2) | MIC (S. aureus; Sa-39 A9578, MHA, Table 2) | MIC (S. aureus; Sa-40 A9601, MHA, Table 2)
6.3 µg/mL: MIC (P. stuartii; Ps-1 A20745, HIA, Table 4) | MIC (P. stuartii; Ps-1 A20745, NA, Table 4) | MIC (P. stuartii; Ps-3 A20911 (β-lactamase), HIA, Table 4) | MIC (P. stuartii; Ps-3 A20911 (β-lactamase), NA, Table 4) | MIC (S. aureus; Sa-44 A15097, NA, Table 4) | MIC (S. aureus; Sa-59 A15096, MHA, Table 2) | MIC (S. aureus; Sa-61 A20605, MHA, Table 2) | MIC (S. aureus; Sa-64 A20608, MHA, Table 2)
58.3%: dose excreted at 24 h (Urinary recovery in rats)
25 µg/mL: MIC (P. stuartii; Ps-4 A21051, MHA, Table 3) | MIC (S. aureus; Sa-44 A15097, MHA, Table 2)
0.8 µg/mL: MIC (P. stuartii; Ps-1 A20745, MHA, Table 3) | MIC (P. stuartii; Ps-2 A20894, MHA, Table 3) | MIC (P. stuartii; Ps-3 A20911, MHA, Table 3) | MIC (P. stuartii; Ps-5 A21057, MHA, Table 3) | MIC (S. aureus; Sa-29 No. 193, MHA, Table 2) | MIC (S. aureus; Sa-37 A9524, MHA, Table 2) | MIC (S. aureus; Sa-56 A9630, MHA, Table 2) | MIC (S. aureus; Sa-62 A20606, MHA, Table 2)
12.5 µg/mL: MIC (S. aureus; Sa-63 A20607, MHA, Table 2)
0.1 µg/mL: MIC (S. pyogenes) | MIC (S. pyogenes; Sp-2 Dick, MHA, Table 2) | MIC (S. pyogenes; Sp-3 A9604, MHA, Table 2) | MIC (S. pyogenes; Sp-5 A15040, MHA, Table 2) | MIC (S. pyogenes; Sp-6 A20066, MHA, Table 2) | MIC (S. pyogenes; Sp-7 Dig 7, MHA, Table 2) | MIC (S. pyogenes; Sp-8 A15041, MHA, Table 2) | MIC (S. pyogenes; Sp-9 A20201, MHA, Table 2) | MIC (S. pyogenes; Sp-10 A20202, MHA, Table 2) | MIC (S. pyogenes; Streptococcus pyogenes) | MIC (Shig. sonnei; Ss-1 Yale, Table 3) | MIC (S. aureus; BX-1633 A9606, MHA, Table 1) | MIC (S. aureus; Sa-12 A9497, MHA, Table 2)
3.1 µg/mL: MIC (P. stuartii; Ps-3 A20911 (β-lactamase), MHA, Table 4) | MIC (S. aureus; Sa-44 A15097, HIA, Table 4) | MIC (S. aureus; Sa-44 A15097, MHA, Table 4) | MIC (S. aureus; Sa-57 A9748, MHA, Table 2) | MIC (S. aureus; Sa-60 A20604, MHA, Table 2)
> 100 µg/mL: MIC (Ps. aeruginosa; A9843, MHA, Table 1) | MIC (Ps. aeruginosa; A9930, MHA, Table 1) | MIC (Ps. aeruginosa; Pa-3 A9930, HIA, Table 4) | MIC (Ps. aeruginosa; Pa-3 A9930, MHA, Table 4) | MIC (Ps. aeruginosa; Pa-3 A9930, NA, Table 4) | MIC (Ps. aeruginosa; strain not given (1st of 2), MHA, Example 10) | MIC (Ps. aeruginosa; strain not named (2nd of 2), MHA, Example 10)
